From US20250353863A1, “TRICYCLIC SPIROLACTAM COMPOUNDS WITH ANTIMYCOBACTERIAL ACTIVITY” (priority 2022, published 2025) come the findings set out here.

The structures appear in SMILES notation. ≈ marks a conversion by molar mass, not a printed value.

The first assay deals with Mtb H37Rv-WT. Put plainly: MIC by resazurin microtiter assay (REMA) against Mtb. The class given is cell-based. The note with it: Mycobacterium tuberculosis, 144 h, REMA, 37° C., 6 days, read-out: MIC (μM) H37Rv-WT.
The MIC is the lowest concentration found to suppress growth. On to `CC(C)[C@H]1CO[C@]23CCN(C(=O)OCCc4ccc(C(F)(F)F)cc4)C[C@H]2CCC(=O)N13`, for which the MIC is 1 to 10 µM (≈ 0.454 to 4.54 µg/mL).
In the case of `CC(C)[C@H]1CO[C@]23CCN(C(=O)OCCCc4ccc(C(F)(F)F)cc4)C[C@H]2CCC(=O)N13`, the MIC was 1 to 10 µM (≈ 0.469 to 4.69 µg/mL).
Still for that read-out and setting: under `CC(C)[C@H]1CO[C@]23CCN(Cc4ccc(C(F)(F)F)cc4)C[C@H]2C[C@@H](C)C(=O)N13` stands below 1 µM; under `CC(C)[C@H]1CO[C@]23CCN(S(=O)(=O)CCCc4ccc(C(F)(F)F)cc4)C[C@H]2CCC(=O)N13`, below 1 µM.
Same read-out and setting: under `CC(C)[C@H]1CO[C@]23CCN(Cc4cc5ccccc5n4C)C[C@H]2CCC(=O)N13` stands below 1 µM; under `CC(C)[C@H]1CO[C@]23CCN(Cc4ccc(OC(F)(F)F)cc4)C[C@H]2CCC(=O)N13`, below 1 µM.
With `CC(C)[C@H]1CO[C@]23CCN(S(=O)(=O)Cc4ccc(C(F)(F)F)cc4)C[C@H]2CCC(=O)N13`, the MIC is below 1 µM.
In the case of `C=C[C@H]1CO[C@]23CCN(Cc4ccc(C(F)(F)F)cc4)C[C@H]2CCC(=O)N13`, the MIC was above 10 µM.
Regarding `CC(C)[C@H]1CO[C@]23CC[C@@H](N(Cc4ccc(C(F)(F)F)cc4)Cc4ccc(C(F)(F)F)cc4)C[C@H]2CCC(=O)N13`, the MIC was below 1 µM.
Turning to `CC(C)[C@H]1CO[C@]23CC[C@H](NCc4ccc(C(F)(F)F)cc4)C[C@H]2CCC(=O)N13`, the MIC is below 1 µM.
Take `CC(C)[C@H]1CO[C@]23CC[C@H](N(Cc4ccc(C(F)(F)F)cc4)Cc4ccc(C(F)(F)F)cc4)C[C@H]2CCC(=O)N13`: the MIC was below 1 µM.
Turning to `CC(C)[C@H]1CCO[C@]23CCN(Cc4ccc(C(F)(F)F)cc4)C[C@H]2CCC(=O)N13`, the MIC was in the range of 1 to 10 µM (≈ 0.41 to 4.1 µg/mL).
The same measure, in the same setting: under `CC(C)[C@H]1CO[C@]23CCN(Cc4ccc(C(F)(F)F)cc4)C[C@H]2C[C@H](C)C(=O)N13` (single isomer, unassigned) stands 1 to 10 µM (≈ 0.41 to 4.1 µg/mL); under `CC(C)[C@H]1CO[C@]23CCN(Cc4ccccc4)C[C@H]2CC(=O)N13` [(1R,4S,8R)-10-benzyl-4-isopropyl-2-oxa-5,10-diazatricyclo[6.4.0.01,5]dodecan-6-one], 1 to 10 µM (≈ 0.314 to 3.14 µg/mL).
As for `CC(C)[C@H]1CO[C@]23CCN(Cc4ccc(C(F)(F)F)cc4)C[C@H]2OCC(=O)N13` [(1R,4S,9R)-4-isopropyl-11-[[4-(trifluoromethyl)phenyl]methyl]-2,8-dioxa-5,11-diazatricyclo[7.4.0.01,5]tridecan-6-one], the MIC was 1 to 10 µM (≈ 0.398 to 3.98 µg/mL).
The same measure, in the same setting: as for `CC(C)[C@H]1CO[C@]23CCN(Cc4ccc(C(F)(F)F)cc4)[C@H]2CCC(=O)N13` [(1R,4S,9S)-4-isopropyl-10-[[4-(trifluoromethyl)phenyl]methyl]-2-oxa-5,10-diazatricyclo[7.3.0.01,5]dodecan-6-one], the figure is below 1 µM.
Still for that read-out and setting: under `O=C1CC[C@@H]2CN(Cc3ccccc3)CC[C@@]23N[C@H]2CCCC[C@@H]2N13` [(1S,6R,11S,16S)-4-benzyl-4,10,17-triazatetracyclo[8.7.0.01,6.011,16] heptadecan-9-one] stands above 10 µM.
The same measure, in the same setting: under `O=C1CC[C@@H]2CN(Cc3ccc(C(F)(F)F)cc3)CC[C@@]23OC[C@H](C(F)(F)F)N13` [(3R,7aR,11aR)-3-(trifluoromethyl)-9-[[4-(trifluoromethyl)phenyl]methyl]-2,3,6,7,7a,8,10,11-octahydrooxazolo[2,3-j][1,6]naphthyridin-5-one] stands above 10 µM; under `C=CC[C@@H]1C[C@@H]2CN(Cc3ccc(C(F)(F)F)cc3)CC[C@@]23OC[C@H](C(C)C)N3C1=O` [(3S,6R,7aR,11aR)-6-allyl-3-isopropyl-9-[[4-(trifluoromethyl)phenyl]methyl]-2,3,6,7,7a,8,10,11-octahydrooxazolo[2,3-j][1,6]naphthyridin-5-one], 1 to 10 µM (≈ 0.437 to 4.37 µg/mL); under `CC[C@@H]1C[C@@H]2CN(Cc3ccc(C(F)(F)F)cc3)CC[C@@]23OC[C@H](C(C)C)N3C1=O` [(3S,6R,7aR,11aR)-6-ethyl-3-isopropyl-9-[[4-(trifluoromethyl)phenyl]methyl]-2,3,6,7,7a,8,10,11-octahydrooxazolo[2,3-j][1,6]naphthyridin-5-one], below 1 µM.
Turning to `CC(C)C[C@@H]1C[C@@H]2CN(Cc3ccc(C(F)(F)F)cc3)CC[C@@]23OC[C@H](C(C)C)N3C1=O` [(3S,6R,7aR,11aR)-6-isobutyl-3-isopropyl-9-[[4-(trifluoromethyl)phenyl]methyl]-2,3,6,7,7a,8,10,11-octahydrooxazolo[2,3-j][1,6]naphthyridin-5-one], the MIC is above 10 µM.
Regarding `C=CC[C@H]1C[C@@H]2CN(Cc3ccc(C(F)(F)F)cc3)CC[C@@]23OC[C@H](C(C)C)N3C1=O` [(3S,6S,7aR,11aR)-6-allyl-3-isopropyl-9-[[4-(trifluoromethyl)phenyl]methyl]-2,3,6,7,7a,8,10,11-octahydrooxazolo[2,3-j][1,6]naphthyridin-5-one], the MIC was above 10 µM.
The same measure, in the same setting: under `CC[C@H]1C[C@@H]2CN(Cc3ccc(C(F)(F)F)cc3)CC[C@@]23OC[C@H](C(C)C)N3C1=O` [(3S,6S,7aR,11aR)-6-ethyl-3-isopropyl-9-[[4-(trifluoromethyl)phenyl]methyl]-2,3,6,7,7a,8,10,11-octahydrooxazolo[2,3-j][1,6]naphthyridin-5-one] stands above 10 µM; under `CC(C)[C@H]1CO[C@]23CCN(Cc4ccc5ncccc5c4)C[C@H]2CCC(=O)N13` [(3S,7aR,11aR)-3-isopropyl-9-(6-quinolylmethyl)-2,3,6,7,7a,8,10,11-octahydrooxazolo[2,3-j][1,6]naphthyridin-5-one], 1 to 10 µM (≈ 0.38 to 3.8 µg/mL); under `Cc1ccc(CN2CC[C@]34OC[C@H](C(C)C)N3C(=O)CC[C@@H]4C2)cc1` [(3S,7aR,11aR)-3-isopropyl-9-(p-tolylmethyl)-2,3,6,7,7a,8,10,11-octahydrooxazolo[2,3-j][1,6]naphthyridin-5-one], 1 to 10 µM (≈ 0.342 to 3.42 µg/mL).
Regarding `CC(C)[C@H]1CO[C@]23CCN(CC4CCCO4)C[C@H]2CCC(=O)N13` (stereo partly drawn) [(3S,7aR,11aR)-3-isopropyl-9-(tetrahydrofuran-2-ylmethyl)-2,3,6,7,7a,8,10,11-octahydrooxazolo[2,3-j][1,6]naphthyridin-5-one], the MIC was above 10 µM.
Same read-out and setting: as for `CC(C)[C@H]1CO[C@]23CCN(CC4CCCCO4)C[C@H]2CCC(=O)N13` (stereo partly drawn) [(3S,7aR,11aR)-3-isopropyl-9-(tetrahydropyran-2-ylmethyl)-2,3,6,7,7a,8,10,11-octahydrooxazolo[2,3-j][1,6]naphthyridin-5-one], the figure is 1 to 10 µM (≈ 0.336 to 3.36 µg/mL); as for `CC(C)[C@H]1CO[C@]23CCN(CC4CCOCC4)C[C@H]2CCC(=O)N13` [(3S,7aR,11aR)-3-isopropyl-9-(tetrahydropyran-4-ylmethyl)-2,3,6,7,7a,8,10,11-octahydrooxazolo[2,3-j][1,6]naphthyridin-5-one], above 10 µM.
On to `CC(C)[C@H]1CO[C@]23CCN(C(=O)Cc4ccc(C(F)(F)F)cc4)C[C@H]2CCC(=O)N13` [(3S,7aR,11aR)-3-isopropyl-9-[2-[4-(trifluoromethyl)phenyl]acetyl]-2,3,6,7,7a,8,10,11-octahydrooxazolo[2,3-j][1,6]naphthyridin-5-one], for which the MIC is above 10 µM.
Regarding `CC(C)[C@H]1CO[C@]23CCN(S(=O)(=O)CCc4ccc(C(F)(F)F)cc4)C[C@H]2CCC(=O)N13` [(3S,7aR,11aR)-3-isopropyl-9-[2-[4-(trifluoromethyl)phenyl]ethylsulfonyl]-2,3,6,7,7a,8,10,11-octahydrooxazolo[2,3-j][1,6]naphthyridin-5-one], the MIC was below 1 µM.
For `CC(C)[C@H]1CO[C@]23CCN(CCCc4ccc(C(F)(F)F)cc4)C[C@H]2CCC(=O)N13` [(3S,7aR,11aR)-3-isopropyl-9-[3-[4-(trifluoromethyl)phenyl]propyl]-2,3,6,7,7a,8,10,11-octahydrooxazolo[2,3-j][1,6]naphthyridin-5-one], the MIC is below 1 µM.
Same read-out and setting: under `CC(C)[C@H]1CO[C@]23CCN(c4ccc(C(F)(F)F)cc4)C[C@H]2CCC(=O)N13` [(3S,7aR,11aR)-3-isopropyl-9-[4-(trifluoromethyl)phenyl]-2,3,6,7,7a,8,10,11-octahydrooxazolo[2,3-j][1,6]naphthyridin-5-one] stands 1 to 10 µM (≈ 0.382 to 3.82 µg/mL); under `CC(C)[C@H]1CO[C@]23CCN(Cc4nccn4C)C[C@H]2CCC(=O)N13` [(3S,7aR,11aR)-3-isopropyl-9-[(1-methylimidazol-2-yl)methyl]-2,3,6,7,7a,8,10,11-octahydrooxazolo[2,3-j][1,6]naphthyridin-5-one], 1 to 10 µM (≈ 0.332 to 3.32 µg/mL); under `Cc1c(CN2CC[C@]34OC[C@H](C(C)C)N3C(=O)CC[C@@H]4C2)[nH]c2ccccc12` [(3S,7aR,11aR)-3-isopropyl-9-[(3-methyl-1H-indol-2-yl)methyl]-2,3,6,7,7a,8,10,11-octahydrooxazolo[2,3-j][1,6]naphthyridin-5-one], below 1 µM.
As for `CC(C)[C@H]1CO[C@]23CCN(Cc4cccc(Oc5ccccc5)c4)C[C@H]2CCC(=O)N13` [(3S,7aR,11aR)-3-isopropyl-9-[(3-phenoxyphenyl)methyl]-2,3,6,7,7a,8,10,11-octahydrooxazolo[2,3-j][1,6]naphthyridin-5-one], the MIC was below 1 µM.
Same read-out and setting: under `CC(C)[C@H]1CO[C@]23CCN(Cc4ccc(-c5ccccc5)cc4)C[C@H]2CCC(=O)N13` [(3S,7aR,11aR)-3-isopropyl-9-[(4-phenylphenyl)methyl]-2,3,6,7,7a,8,10,11-octahydrooxazolo[2,3-j][1,6]naphthyridin-5-one] stands below 1 µM; under `CC(C)[C@H]1CO[C@]23CCN(Cc4cc(C(F)(F)F)nc5ccccc45)C[C@H]2CCC(=O)N13` [(3S,7aR,11aR)-3-isopropyl-9-[[2-(trifluoromethyl)-4-quinolyl]methyl]-2,3,6,7,7a,8,10,11-octahydrooxazolo[2,3-j][1,6]naphthyridin-5-one], below 1 µM.
As for `CC(C)[C@H]1CO[C@]23CCN(Cc4ccc(N5CCCCC5)cc4)C[C@H]2CCC(=O)N13` [(3S,7aR,11aR)-3-isopropyl-9-[[4-(1-piperidyl)phenyl]methyl]-2,3,6,7,7a,8,10,11-octahydrooxazolo[2,3-j][1,6]naphthyridin-5-one], the MIC was in the range of 1 to 10 µM (≈ 0.412 to 4.12 µg/mL).

Staying with this assay, now noted: Mycobacterium tuberculosis, 144 h, read-out: MIC (μM) H37Rv-WT.
Take `CC(C)[C@H]1CO[C@]23CCN(Cc4ccncc4)C[C@H]2CCC(=O)N13` [(3S,7aR,11aR)-3-isopropyl-9-(4-pyridylmethyl)-2,3,6,7,7a,8,10,11-octahydrooxazolo[2,3-j][1,6]naphthyridin-5-one]: the MIC was above 10 µM.
